Here are results for one compound from patent publication US20100003301A1, “Bone Defect Filler, Release-Controlled Carrier, And Their Production Methods” (The University of Tokyo, priority 2006, published 2010).

This data set is described as follows: Viscosity measurement of blocking agents (LVDV digital viscometer). Format: physicochemical. As to conditions: viscosity could not be measured. Here is the method: A Z printer 406 made by Z corporation was used to produce a bone filling material. “LVDV” which is a digital viscometer made by Brookfield Co., Ltd. was used to measure viscosity. A UL (ultra low viscosity) adapter was used when the viscosity was measured. Bending strength was measured by a rheometer made by Sun Science Co., Ltd.
Viscosity of blocking agents were measured by “LVDV” which is a digital viscometer made by Brookfield Co., Ltd. The results are shown in Table 2.

In the case of `NC(=O)CC[C@H](N)C(=O)O` [L-glutamine], the dissolution in water result is “cannot be dissolved in water”.
